Data: patent US20250228861A1, “Cancer Treatments Using MTA-Cooperative PRMT5 Inhibitors” (AMGEN INC., priority 2022, published 2025)
Entries after “also recorded” stand apart in the source; their conditions may differ.

Experiments:
[1] = system: H292 cells; assay: Combination with paclitaxel, CellTiter-Glo viability, Fa and CalcuSyn CI; type: cell-based; settings: 6 days;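 note: fa derived from raw luminescence, CI computed in CalcuSyn from drug concentrations and Fa, with CI under 0.9 indicating synergism and 0.9 to 1.1 nearly additive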
Experimental: (§3) Cell viability was measured by the CellTiter-Glo Luminescence assay. Raw luminescent values were converted to fraction affected (Fa) with the following equation:
(§4) Synergy analysis was performed using the CalcuSyn software to determine CI scores based on the drug concentrations used and corresponding Fa values.

[2] = system: A549 cells; assay: Combination with pemetrexed, CellTiter-Glo viability, Fa and CalcuSyn CI; settings: 6 days;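 note: fa derived from raw CellTiter-Glo luminescence, CI computed by CalcuSyn from drug concentrations and Fa, with values below 0.9 meaning synergism and 0.9–1.1 nearly additive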
Experimental: as §3, §4

[3] = system: HAP1- and HCT116 MTAP-null cells; assay: Global SDMA levels (ELISA / in-cell imaging) in MTAP-null cells; type: cell-based; settings: HAP1 ELISA 3 days, HCT116 in-cell imaging 4 days
Experimental: (§1) FIG. 1. […] Viability was measured by CellTiter-Glo and cooperativity was determined as follows: Cooperativity=WT IC50/MTAP-null IC50.
HAP1 WT and MTAP-null global SDMA levels were assessed by an ELISA assay after 3 days treatment.
HCT116 WT and MTAP-null global SDMA levels were assessed by an in-cell imaging assay after 4 days treatment.

[4] = system: H292 cells; assay: Combination with pemetrexed, CellTiter-Glo viability, Fa and CalcuSyn CI; settings: 6 days;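 note: fa derived from CellTiter-Glo luminescence signal, CI calculated in CalcuSyn from doses and Fa, with 0.9–1.1 nearly additive and smaller values indicating synergism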
Experimental: as §3, §4

[5] = system: MIAPACA2T2 cells; assay: Combination with irinotecan, CellTiter-Glo viability, Fa and CalcuSyn CI; type: cell-based; settings: 6 days
Experimental: as §3, §4

[6] = system: HCT116 MTAP-WT cells; assay: 6-day CellTiter-Glo viability in MTAP-WT cells; type: cell-based; settings: Homo sapiens, HCT-116, 144 h, 6 days, read-out: proliferation, IC50
Experimental: as §1
(§2) Plated cells were at optimized cell density in 96-well black walled, clear bottom tissue culture plates in 90 μL of growth media. Cells were incubated at room temperature for 30 minutes prior to placing in incubator at 37° C. and 5% CO2 overnight. […] Secondary compound dilutions (1:100) in media were done in the 96-well V-Bottom plate by adding 3 μL of the primary dilution to 297 μL of culture media. Finally, 10 μL from the secondary compound dilutions were added to cells in triplicate (1:10 dilution; final DMSO concentration 0.1%). Once addition was complete, plates were incubated at 37° C. and 5% CO2. […] Percent of Control (POC) values were calculated as follows: POC=100*(Treatment/Vehicle). Mean POC values were then calculated for each treatment condition and used to fit dose response curves applying a four parameter logistic curve in GraphPad Prism 7.

[7] = system: A549 cells; assay: Combination with paclitaxel, CellTiter-Glo viability, Fa and CalcuSyn CI; type: cell-based; settings: 6 days;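 note: luminescent viability signal converted to fraction affected (Fa), and Fa with drug concentrations gives the CalcuSyn CI, where 0.9–1.1 is nearly additive and lower CI means stronger synergism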
Experimental: as §3, §4

[8] = system: H292 NSCLC xenografts; assay: H292 NSCLC xenografts, combination with chemotherapy; type: in vivo, mice
[9] = system: HAP1- and HCT116 MTAP-null cells; assay: 6-day CellTiter-Glo viability in MTAP-null cells; type: cell-based; settings: 144 h, 6 days, read-out: proliferation, IC50
Experimental: as §1, §2

[10] = system: MIAPACA2T2 cells; assay: Combination with gemcitabine, CellTiter-Glo viability, Fa and CalcuSyn CI; type: cell-based; settings: 6 days
Experimental: as §3, §4

[11] = system: PSN1 cells; assay: Combination with irinotecan, CellTiter-Glo viability, Fa and CalcuSyn CI; type: cell-based; settings: 6 days
Experimental: as §3, §4

[12] = system: MIAPACA2T2 cells; assay: Combination with carboplatin, CellTiter-Glo viability, Fa and CalcuSyn CI; type: cell-based; settings: 6 days
Experimental: as §3, §4

[13] = Compound B 0.2916 μM fixed + Paclitaxel 0.0005 μM
[14] = Compound B 0.2916 μM fixed + Paclitaxel 0.0007 μM
[15] = Compound B 0.2916 μM fixed + Paclitaxel 0.0009 μM
[16] = Compound B 0.2916 μM fixed + Paclitaxel 0.0011 μM
[17] = Compound B 0.2916 μM fixed + Paclitaxel 0.0015 μM
[18] = Compound B 0.2916 μM fixed + Paclitaxel 0.0019 μM
[19] = Compound B 0.2916 μM fixed + Paclitaxel 0.0025 μM
[20] = Compound B 0.1535 μM fixed + Pemetrexed 0.131687 μM
[21] = Compound B 0.1535 μM fixed + Pemetrexed 0.197531 μM
[22] = Compound B 0.1535 μM fixed + Pemetrexed 0.296296 μM
[23] = Compound B 0.1535 μM fixed + Pemetrexed 0.444444 μM
[24] = Compound B 0.1535 μM fixed + Pemetrexed 0.666667 μM
[25] = Compound B 0.1535 μM fixed + Pemetrexed 1 μM
[26] = Compound B 0.1535 μM fixed + Pemetrexed 1.5 μM
[27] = Compound B 0.1535 μM fixed + Paclitaxel 0.0005 μM
[28] = Compound B 0.1535 μM fixed + Paclitaxel 0.0007 μM
[29] = Compound B 0.1535 μM fixed + Paclitaxel 0.0009 μM
[30] = Compound B 0.1535 μM fixed + Paclitaxel 0.0011 μM
[31] = Compound B 0.1535 μM fixed + Paclitaxel 0.0015 μM
[32] = Compound B 0.1535 μM fixed + Paclitaxel 0.0019 μM
[33] = Compound B 0.1535 μM fixed + Paclitaxel 0.0025 μM
[34] = Compound B 0.2916 μM fixed + Gemcitabine 0.002045 μM

Cc1cc2cc(C(=O)N(Cc3ccc(C(F)(F)F)cn3)[C@@H](C)c3ncccn3)ccc2nc1N [Compound B]
Combination Fa [1, 13]: 0.7127 | Computed CI value [1, 13]: 0.84 | Combination Fa [1, 14]: 0.7796 | Computed CI value [1, 14]: 0.758 | Combination Fa [1, 15]: 0.8302 | Computed CI value [1, 15]: 0.757 | Combination Fa [1, 16]: 0.8932 | Computed CI value [1, 16]: 0.724 | Combination Fa [1, 17]: 0.9425 | Computed CI value [1, 17]: 0.697 | Combination Fa [1, 18]: 0.9568 | Computed CI value [1, 18]: 0.8 | Combination Fa [1, 19]: 0.9674 | Computed CI value [1, 19]: 0.928 | Combination Fa ([2]; Compound B 0.1535 μM fixed + Pemetrexed 0.087792 μM): 0.6401 | Combination Fa [2, 20]: 0.6629 | Computed CI value [2, 20]: 0.936 | Combination Fa [2, 21]: 0.6484 | Computed CI value [2, 21]: 1.172 | Combination Fa [2, 22]: 0.6761 | Computed CI value [2, 22]: 1.033 | Combination Fa [2, 23]: 0.7384 | Computed CI value [2, 23]: 0.639 | Combination Fa [2, 24]: 0.8303 | Computed CI value [2, 24]: 0.235 | Combination Fa [2, 25]: 0.8717 | Computed CI value [2, 25]: 0.139 | IC50 [3]: 0.2 nM | Combination Fa [4, 20]: 0.6769 | Computed CI value [4, 20]: 0.73 | Combination Fa [4, 21]: 0.7032 | Computed CI value [4, 21]: 0.587 | Combination Fa [4, 22]: 0.7484 | Computed CI value [4, 22]: 0.401 | Combination Fa [4, 23]: 0.7887 | Computed CI value [4, 23]: 0.309 | Combination Fa [4, 24]: 0.8438 | Computed CI value [4, 24]: 0.215 | Combination Fa [4, 25]: 0.8703 | Computed CI value [4, 25]: 0.216 | Combination Fa [4, 26]: 0.8508 | Computed CI value [4, 26]: 0.385 | Computed CI value ([5]; Compound B 0.4374 μM fixed + Irinotecan 0.256 μM): 0.602 | Computed CI value ([5]; Compound B 0.4374 μM fixed + Irinotecan […]): 0.647 | IC50 [6]: 630 nM | Combination Fa [7, 27]: 0.7030 | Computed CI value [7, 27]: 0.545 | Combination Fa [7, 28]: 0.7177 | Computed CI value [7, 28]: 0.64 | Combination Fa [7, 29]: 0.7578 | Computed CI value [7, 29]: 0.716 | Combination Fa [7, 30]: 0.8365 | Computed CI value [7, 30]: 0.745 | Combination Fa [7, 31]: 0.9023 | Computed CI value [7, 31]: 0.786 | Combination Fa [7, 32]: 0.9387 | Computed CI value [7, 32]: 0.867 | Combination Fa [7, 33]: 0.9692 | Computed CI value [7, 33]: 0.898 | anti-tumor activity of combination with paclitaxel ([8]; 100 mg/kg orally once daily + paclitaxel 20 mg/kg IP): significant anti-tumor activity versus either single agent alone; also recorded: significant anti-tumor activity versus paclitaxel or carboplatin alone | anti-tumor activity of combination with carboplatin ([8]; orally once daily + carboplatin 60 mg/kg IP 1×/week): significant anti-tumor activity versus paclitaxel or carboplatin alone | IC50 [9]: 27 nM | Combination Fa ([10]; Compound B 0.2916 μM fixed + Gemcitabine 0.001461 μM): 0.567 | Combination Fa [10, 34]: 0.514 | Computed CI value [10, 34]: 1.006 | Computed CI value ([10]; Compound B 0.2916 μM fixed + Gemcitabine 0.002863 μM): 0.823 | Computed CI value ([10]; Compound B 0.2916 μM fixed + Gemcitabine 0.004009 μM): 0.866 | Computed CI value ([10]; Compound B 0.2916 μM fixed + Gemcitabine 0.005612 μM): 0.843 | Computed CI value ([10]; Compound B 0.2916 μM fixed + Gemcitabine 0.007857 μM): 0.895 | Computed CI value ([10]; Compound B 0.2916 μM fixed + Gemcitabine 0.011 μM): 1.007 | Computed CI value ([11]; Compound B 0.0202 μM fixed + Irinotecan 0.088889 μM): 0.806 | Computed CI value ([11]; Compound B 0.0202 μM fixed + Irinotecan 0.133333 μM): 0.8 | Computed CI value ([11]; Compound B 0.0202 μM fixed + Irinotecan 0.2 μM): 0.8 | Combination Fa ([12]; Compound B 0.4374 μM fixed + Carboplatin 2.47793 μM): 0.653 | Computed CI value ([12]; Compound B 0.4374 μM fixed + Carboplatin 11.1111 μM): 0.269
